Reference: ChEMBL document CHEMBL2073791, “Substituted pyridazino[3,4-b][1,5]benzoxazepin-5(6H)ones as multidrug-resistance modulating agents” (J Med Chem, 2004)

Target: ATP-dependent translocase ABCB1 (Homo sapiens, UniProt P08183)
Experiment: TP_TRANSPORTER: drug resistance (vincristine) in HeLa-MDR1 cells
Type: functional, cell-based

Chain of ATP-dependent translocase ABCB1 (P08183 whole entry): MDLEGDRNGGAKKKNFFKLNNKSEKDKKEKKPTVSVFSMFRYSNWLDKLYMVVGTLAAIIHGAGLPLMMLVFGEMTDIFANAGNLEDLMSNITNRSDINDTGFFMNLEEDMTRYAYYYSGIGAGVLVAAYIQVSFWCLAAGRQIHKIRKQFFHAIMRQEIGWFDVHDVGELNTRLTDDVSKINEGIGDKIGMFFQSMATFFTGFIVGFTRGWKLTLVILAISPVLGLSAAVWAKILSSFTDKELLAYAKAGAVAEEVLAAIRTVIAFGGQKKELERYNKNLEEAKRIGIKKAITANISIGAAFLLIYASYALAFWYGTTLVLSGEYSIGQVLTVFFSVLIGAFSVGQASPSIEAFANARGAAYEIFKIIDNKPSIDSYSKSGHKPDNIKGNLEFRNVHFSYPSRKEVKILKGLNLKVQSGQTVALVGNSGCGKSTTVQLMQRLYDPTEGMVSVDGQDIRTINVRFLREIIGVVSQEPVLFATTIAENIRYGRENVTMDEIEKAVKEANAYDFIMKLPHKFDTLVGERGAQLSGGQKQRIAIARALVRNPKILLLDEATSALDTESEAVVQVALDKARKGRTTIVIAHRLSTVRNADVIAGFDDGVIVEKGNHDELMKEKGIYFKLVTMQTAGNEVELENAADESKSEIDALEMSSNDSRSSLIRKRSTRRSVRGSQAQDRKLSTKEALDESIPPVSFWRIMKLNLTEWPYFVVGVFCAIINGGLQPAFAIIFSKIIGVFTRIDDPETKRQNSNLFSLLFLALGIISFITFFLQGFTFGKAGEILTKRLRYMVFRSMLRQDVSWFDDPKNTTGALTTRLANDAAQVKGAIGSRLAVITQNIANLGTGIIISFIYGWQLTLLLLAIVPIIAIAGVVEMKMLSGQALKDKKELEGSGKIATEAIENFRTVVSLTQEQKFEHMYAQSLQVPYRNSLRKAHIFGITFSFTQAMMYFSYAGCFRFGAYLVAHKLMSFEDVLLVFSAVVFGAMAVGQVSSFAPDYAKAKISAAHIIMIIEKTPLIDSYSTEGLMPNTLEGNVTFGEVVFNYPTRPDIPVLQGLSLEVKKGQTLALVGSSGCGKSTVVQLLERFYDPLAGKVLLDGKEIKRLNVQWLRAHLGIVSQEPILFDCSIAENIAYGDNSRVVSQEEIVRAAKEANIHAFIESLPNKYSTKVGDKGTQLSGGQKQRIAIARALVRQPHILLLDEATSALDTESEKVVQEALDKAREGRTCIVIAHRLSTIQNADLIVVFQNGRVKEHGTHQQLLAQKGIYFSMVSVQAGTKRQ

Activity, substrate [+]:
O=C1c2cc(Cl)nnc2Oc2cc(C(F)(F)F)ccc2N1CCCN1CCN(C(c2ccccc2)c2ccccc2)CC1, O=C1c2cc(Cl)nnc2Oc2ccc(C(F)(F)F)cc2N1CCCN1CCN(Cc2ccccc2)CC1, O=C1c2cc(Cl)nnc2Oc2ccc(C(F)(F)F)cc2N1CCCN1CCN(c2ccccc2)CC1, Cc1cc(C)c2c(c1)N(CCCN1CCN(c3ccccc3)CC1)C(=O)c1cc(Cl)nnc1O2
